From the supplement of paper PMC10307832 come the findings set out here.

What all share (assay): relative viability (nuclei count vs DMSO), 5 days (fraction); higher = more cells survive
Compound in test [1]: COc1cc2nc(N3CCCN(C)CC3)nc(NC3CCN(Cc4ccccc4)CC3)c2cc1OC + O=C(c1cc(Cc2n[nH]c(=O)c3ccccc23)ccc1F)N1CCN(C(=O)C2CC2)CC1 [Olaparib] (partner 8 µM)
In outline: (§1)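 Each reported value is a median over duplicate plates. It expresses relative viability: treated-well nuclei count divided by vehicle-well nuclei count. Lung cancer cell lines in 1536-well plates were dosed by pin tool a day after seeding, alone with one drug or with a fixed anchor-drug dose plus five library-drug doses (not always all listed) in √10 steps, and nuclei were counted after 5 days.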

Compound in the test “AZD6482 + Trametinib”: Cc1cc([C@@H](C)Nc2ccccc2C(=O)O)c2nc(N3CCOCC3)cc(=O)n2c1 [AZD6482] + CC(=O)Nc1cccc(-n2c(=O)n(C3CC3)c(=O)c3c(Nc4ccc(I)cc4F)n(C)c(=O)c(C)c32)c1 [Trametinib] (partner 0.02 µM)
In outline: as §1

Compound in the test “AZD6482 + Crizotinib”: Cc1cc([C@@H](C)Nc2ccccc2C(=O)O)c2nc(N3CCOCC3)cc(=O)n2c1 [AZD6482] + C[C@@H](Oc1cc(-c2cnn(C3CCNCC3)c2)cnc1N)c1c(Cl)ccc(F)c1Cl [Crizotinib] (partner 1 µM)
In outline:
as §1

Compound in the test “AZD6482 + OSI-027”: Cc1cc([C@@H](C)Nc2ccccc2C(=O)O)c2nc(N3CCOCC3)cc(=O)n2c1 [AZD6482] + COc1cccc2cc(-c3nc([C@H]4CC[C@H](C(=O)O)CC4)n4ncnc(N)c34)[nH]c12 [OSI-027] (partner 0.5 µM)
The method in brief: as §1

Consider SW 1573, for which the relative viability in test [1] (first compound 0.2 µM) came to 0.496; in test [1] (first compound 0.6325 µM) it was 0.473; in test [1] (first compound 2 µM), 0.487; in test [1] (first compound 6.325 µM), 0.125; with AZD6482 + Trametinib (first compound 0.08 µM), 0.466; with AZD6482 + Trametinib (first compound 0.253 µM), 0.508. Besides, the relative viability with AZD6482 + Trametinib (first compound 0.8 µM) was determined as 0.526; in the test with AZD6482 + Trametinib (first compound 2.53 µM), 0.336; in the test with AZD6482 + Trametinib (first compound 8 µM) it was 0.307; in the test with AZD6482 + Crizotinib (first compound 0.08 µM), 0.781; with AZD6482 + Crizotinib (first compound 0.253 µM), 0.696; with AZD6482 + Crizotinib (first compound 0.8 µM), 0.733. The relative viability was 0.548 in the test with AZD6482 + Crizotinib (first compound 2.53 µM); 0.466 with AZD6482 + Crizotinib (first compound 8 µM); 0.662 with AZD6482 + OSI-027 (first compound 0.08 µM); 0.52 with AZD6482 + OSI-027 (first compound 0.253 µM); 0.558 in the test with AZD6482 + OSI-027 (first compound 0.8 µM); 0.341 with AZD6482 + OSI-027 (first compound 2.53 µM). In addition, the relative viability with AZD6482 + OSI-027 (first compound 8 µM) is 0.347.
With NCI-H2347, the relative viability in test [1] (first compound 0.2 µM) is 0.563; in test [1] (first compound 0.6325 µM) it was 0.532; in test [1] (first compound 2 µM), 0.535; in test [1] (first compound 6.325 µM), 0.521; with AZD6482 + Trametinib (first compound 0.08 µM) it was 0.276; with AZD6482 + Trametinib (first compound 0.253 µM), 0.271. Also, the relative viability is 0.222 with AZD6482 + Trametinib (first compound 0.8 µM); 0.265 with AZD6482 + Trametinib (first compound 2.53 µM); 0.238 with AZD6482 + Trametinib (first compound 8 µM); 0.609 with AZD6482 + Crizotinib (first compound 0.253 µM); 0.581 with AZD6482 + Crizotinib (first compound 0.8 µM); 0.425 with AZD6482 + Crizotinib (first compound 2.53 µM). Besides, the relative viability turned out to be 0.498 with AZD6482 + Crizotinib (first compound 8 µM); 0.222 with AZD6482 + OSI-027 (first compound 0.08 µM); 0.268 with AZD6482 + OSI-027 (first compound 0.253 µM); 0.317 with AZD6482 + OSI-027 (first compound 0.8 µM); 0.194 in the test with AZD6482 + OSI-027 (first compound 2.53 µM); 0.223 with AZD6482 + OSI-027 (first compound 8 µM).
Take NCI-H2009: the relative viability came out at 0.703 in test [1] (first compound 0.2 µM); 0.706 in test [1] (first compound 0.6325 µM); 0.691 in test [1] (first compound 2 µM); 0.631 in test [1] (first compound 6.325 µM); 0.181 with AZD6482 + Trametinib (first compound 0.08 µM); 0.163 in the test with AZD6482 + Trametinib (first compound 0.253 µM). In addition, the relative viability was found to be 0.21 with AZD6482 + Trametinib (first compound 0.8 µM); 0.139 with AZD6482 + Trametinib (first compound 2.53 µM); 0.185 with AZD6482 + Trametinib (first compound 8 µM); 0.884 in the test with AZD6482 + Crizotinib (first compound 0.08 µM); 1.03 with AZD6482 + Crizotinib (first compound 0.253 µM); 1.05 with AZD6482 + Crizotinib (first compound 0.8 µM). The relative viability in the test with AZD6482 + Crizotinib (first compound 2.53 µM) amounted to 0.693; with AZD6482 + Crizotinib (first compound 8 µM), 0.813; with AZD6482 + OSI-027 (first compound 0.08 µM) it was 0.56; with AZD6482 + OSI-027 (first compound 0.253 µM) it was 0.601; with AZD6482 + OSI-027 (first compound 0.8 µM), 0.555; with AZD6482 + OSI-027 (first compound 2.53 µM) it was 0.224. For the same cell line, the relative viability with AZD6482 + OSI-027 (first compound 8 µM) came to 0.388.
As for HCC-15, the relative viability in test [1] (first compound 0.2 µM) was 0.738; in test [1] (first compound 0.6325 µM), 0.674; in test [1] (first compound 2 µM), 0.754; in test [1] (first compound 6.325 µM) it was 0.695; in the test with AZD6482 + Trametinib (first compound 0.08 µM), 0.356; with AZD6482 + Trametinib (first compound 0.253 µM), 0.348. The relative viability in the test with AZD6482 + Trametinib (first compound 0.8 µM) is 0.33; in the test with AZD6482 + Trametinib (first compound 2.53 µM), 0.271; with AZD6482 + Trametinib (first compound 8 µM), 0.273; with AZD6482 + Crizotinib (first compound 0.08 µM), 0.755; with AZD6482 + Crizotinib (first compound 0.253 µM), 0.729; with AZD6482 + Crizotinib (first compound 0.8 µM), 0.763. Further, the relative viability turned out to be 0.699 with AZD6482 + Crizotinib (first compound 2.53 µM); 0.869 with AZD6482 + Crizotinib (first compound 8 µM); 0.672 with AZD6482 + OSI-027 (first compound 0.08 µM); 0.61 with AZD6482 + OSI-027 (first compound 0.253 µM); 0.666 with AZD6482 + OSI-027 (first compound 0.8 µM); 0.385 with AZD6482 + OSI-027 (first compound 2.53 µM). In addition, the relative viability in the test with AZD6482 + OSI-027 (first compound 8 µM) came to 0.485.
Regarding HCC-44, the relative viability in test [1] (first compound 0.2 µM) was found to be 0.974; in test [1] (first compound 0.6325 µM) it was 1.02; in test [1] (first compound 2 µM), 0.953; in test [1] (first compound 6.325 µM) it was 0.977; with AZD6482 + Trametinib (first compound 0.08 µM), 0.926; with AZD6482 + Trametinib (first compound 0.253 µM), 1.07. The relative viability in the test with AZD6482 + Trametinib (first compound 0.8 µM) stood at 1.08; with AZD6482 + Trametinib (first compound 2.53 µM) it was 1.08; with AZD6482 + Trametinib (first compound 8 µM), 0.858; in the test with AZD6482 + Crizotinib (first compound 0.08 µM), 0.671; in the test with AZD6482 + Crizotinib (first compound 0.253 µM), 0.884; in the test with AZD6482 + Crizotinib (first compound 0.8 µM), 0.965. The relative viability is 0.901 with AZD6482 + Crizotinib (first compound 2.53 µM); 0.523 with AZD6482 + Crizotinib (first compound 8 µM); 0.46 with AZD6482 + OSI-027 (first compound 0.08 µM); 0.511 with AZD6482 + OSI-027 (first compound 0.253 µM); 0.574 with AZD6482 + OSI-027 (first compound 0.8 µM); 0.37 in the test with AZD6482 + OSI-027 (first compound 2.53 µM). Also, in the test with AZD6482 + OSI-027 (first compound 8 µM), the relative viability worked out at 0.296.
For the cell line COR-L23, the relative viability was 0.348 in test [1] (first compound 0.2 µM); 0.38 in test [1] (first compound 0.6325 µM); 0.414 in test [1] (first compound 2 µM); 0.339 in test [1] (first compound 6.325 µM); 0.553 in the test with AZD6482 + Trametinib (first compound 0.08 µM); 0.598 with AZD6482 + Trametinib (first compound 0.253 µM). Moreover, the relative viability in the test with AZD6482 + Trametinib (first compound 0.8 µM) turned out to be 0.652; in the test with AZD6482 + Trametinib (first compound 2.53 µM), 0.403; with AZD6482 + Trametinib (first compound 8 µM), 0.521; with AZD6482 + Crizotinib (first compound 0.08 µM), 0.467; in the test with AZD6482 + Crizotinib (first compound 0.253 µM), 0.733; with AZD6482 + Crizotinib (first compound 0.8 µM) it was 0.749. In addition, the relative viability in the test with AZD6482 + Crizotinib (first compound 2.53 µM) amounted to 0.489; in the test with AZD6482 + Crizotinib (first compound 8 µM), 0.478; with AZD6482 + OSI-027 (first compound 0.08 µM), 0.552; with AZD6482 + OSI-027 (first compound 0.253 µM), 0.791; in the test with AZD6482 + OSI-027 (first compound 0.8 µM), 0.911; with AZD6482 + OSI-027 (first compound 2.53 µM), 0.611. Moreover, the relative viability in the test with AZD6482 + OSI-027 (first compound 8 µM) is 0.751.
In the case of HCC-78, the relative viability in test [1] (first compound 0.2 µM) was 0.944; in test [1] (first compound 0.6325 µM), 0.66; in test [1] (first compound 2 µM), 0.787; in test [1] (first compound 6.325 µM), 0.831; with AZD6482 + Trametinib (first compound 0.08 µM), 0.547; with AZD6482 + Trametinib (first compound 0.253 µM), 0.496. Also, the relative viability with AZD6482 + Trametinib (first compound 0.8 µM) came to 0.57; with AZD6482 + Trametinib (first compound 2.53 µM) it was 0.345; in the test with AZD6482 + Trametinib (first compound 8 µM), 0.417; with AZD6482 + Crizotinib (first compound 0.08 µM), 0.295; in the test with AZD6482 + Crizotinib (first compound 0.253 µM), 0.322; with AZD6482 + Crizotinib (first compound 0.8 µM) it was 0.245. Further, the relative viability with AZD6482 + Crizotinib (first compound 2.53 µM) is 0.227; with AZD6482 + Crizotinib (first compound 8 µM), 0.235; with AZD6482 + OSI-027 (first compound 0.08 µM), 0.316; with AZD6482 + OSI-027 (first compound 0.253 µM), 0.315; with AZD6482 + OSI-027 (first compound 0.8 µM), 0.32; with AZD6482 + OSI-027 (first compound 2.53 µM) it was 0.265. In the test with AZD6482 + OSI-027 (first compound 8 µM), the relative viability is 0.303.
Regarding NCI-H727, the relative viability is 0.646 in test [1] (first compound 0.2 µM); 0.616 in test [1] (first compound 0.6325 µM); 0.772 in test [1] (first compound 2 µM); 0.59 in test [1] (first compound 6.325 µM); 0.382 with AZD6482 + Trametinib (first compound 0.08 µM); 0.358 in the test with AZD6482 + Trametinib (first compound 0.253 µM). Besides, the relative viability with AZD6482 + Trametinib (first compound 0.8 µM) worked out at 0.394; with AZD6482 + Trametinib (first compound 8 µM), 0.386; with AZD6482 + Crizotinib (first compound 0.08 µM), 0.684; in the test with AZD6482 + Crizotinib (first compound 0.253 µM) it was 0.971; with AZD6482 + Crizotinib (first compound 0.8 µM) it was 0.864; with AZD6482 + Crizotinib (first compound 8 µM) it was 0.824. Also, the relative viability was found to be 0.457 with AZD6482 + OSI-027 (first compound 0.08 µM); 0.521 with AZD6482 + OSI-027 (first compound 0.253 µM); 0.511 with AZD6482 + OSI-027 (first compound 0.8 µM); 0.43 with AZD6482 + OSI-027 (first compound 2.53 µM); 0.518 with AZD6482 + OSI-027 (first compound 8 µM).
